Results: the NIST ThermoML archive (doi:10.1021/acs.jced.8b01135)
± gives the expanded uncertainty stated by the source.

Assay: xn = mol fraction of the nth substance listed
Details: 102 kPa, Liquid; for speed of sound: Frequency=3 MHz, Single path-length method; for mass density: Vibrating tube method; for viscosity: Concentric cylinders viscometry

CCCCCC1CCCCC1 [pentylcyclohexane] + CCCCCCCCCCCC
Details	mass density [kg/m3]	speed of sound [m/s]	viscosity [mPa·s]
288.15 K, x1 = 0.1009	757.14 ± 0.71	1321.1 ± 0.8	–
288.15 K, x1 = 0.2001	761.98 ± 0.71	1324.9 ± 0.9	–
288.15 K, x1 = 0.3003	767.03 ± 0.71	1329.1 ± 0.9	–
288.15 K, x1 = 0.4009	772.26 ± 0.71	1333.4 ± 0.9	–
288.15 K, x1 = 0.5001	777.64 ± 0.72	1338.1 ± 0.9	–
288.15 K, x1 = 0.6	783.17 ± 0.72	1343 ± 1	–
288.15 K, x1 = 0.7003	789 ± 0.72	1348.1 ± 1	–
288.15 K, x1 = 0.8136	795.88 ± 0.72	1354.4 ± 1	–
288.15 K, x1 = 0.9082	801.77 ± 0.72	1359.9 ± 1	–
288.15 K, x1 = 1	807.78 ± 0.72	1365.8 ± 1.1	–
293.15 K, x1 = 0.1009	753.52 ± 0.71	1301.6 ± 0.8	1.5 ± 0.02
293.15 K, x1 = 0.2001	758.36 ± 0.71	1305.5 ± 0.9	1.51 ± 0.02
293.15 K, x1 = 0.3003	763.41 ± 0.71	1309.6 ± 0.9	1.52 ± 0.02
293.15 K, x1 = 0.4009	768.64 ± 0.71	1313.9 ± 0.9	1.54 ± 0.02
293.15 K, x1 = 0.5001	774.02 ± 0.72	1318.6 ± 0.9	1.55 ± 0.02
293.15 K, x1 = 0.6	779.55 ± 0.72	1323.4 ± 1	1.57 ± 0.02
293.15 K, x1 = 0.7003	785.37 ± 0.72	1328.5 ± 1	1.6 ± 0.02
293.15 K, x1 = 0.8136	792.25 ± 0.72	1334.7 ± 1	1.62 ± 0.02
293.15 K, x1 = 0.9082	798.13 ± 0.72	1340.2 ± 1	1.66 ± 0.02
293.15 K, x1 = 1	804.13 ± 0.72	1346 ± 1.1	1.69 ± 0.03
298.15 K, x1 = 0.1009	749.9 ± 0.71	1282.5 ± 0.8	–
298.15 K, x1 = 0.2001	754.73 ± 0.71	1286.2 ± 0.9	–
298.15 K, x1 = 0.3003	759.79 ± 0.71	1290.3 ± 0.9	–
298.15 K, x1 = 0.4009	765.01 ± 0.72	1294.6 ± 0.9	–
298.15 K, x1 = 0.5001	770.39 ± 0.72	1299.2 ± 0.9	–
298.15 K, x1 = 0.6	775.92 ± 0.72	1304 ± 1	–
298.15 K, x1 = 0.7003	781.74 ± 0.72	1309.1 ± 1	–
298.15 K, x1 = 0.8136	788.61 ± 0.72	1315.2 ± 1	–
298.15 K, x1 = 0.9082	794.48 ± 0.72	1320.6 ± 1	–
298.15 K, x1 = 1	800.48 ± 0.72	1326.4 ± 1.1	–
303.15 K, x1 = 0.1009	746.27 ± 0.71	1263.2 ± 0.8	1.28 ± 0.02
303.15 K, x1 = 0.2001	751.1 ± 0.71	1267.1 ± 0.9	1.29 ± 0.02
303.15 K, x1 = 0.3003	756.16 ± 0.71	1271.2 ± 0.9	1.3 ± 0.02
303.15 K, x1 = 0.4009	761.38 ± 0.72	1275.4 ± 0.9	1.31 ± 0.02
303.15 K, x1 = 0.5001	766.76 ± 0.72	1280 ± 0.9	1.32 ± 0.02
303.15 K, x1 = 0.6	772.28 ± 0.72	1284.8 ± 1	1.34 ± 0.02
303.15 K, x1 = 0.7003	778.1 ± 0.72	1289.8 ± 1	1.35 ± 0.02
303.15 K, x1 = 0.8136	784.97 ± 0.72	1295.8 ± 1	1.38 ± 0.02
303.15 K, x1 = 0.9082	790.84 ± 0.72	1301.1 ± 1	1.4 ± 0.02
303.15 K, x1 = 1	796.82 ± 0.72	1306.7 ± 1.1	1.43 ± 0.03
313.15 K, x1 = 0.1009	738.99 ± 0.71	1225.5 ± 0.8	1.08 ± 0.02
313.15 K, x1 = 0.2001	743.83 ± 0.71	1229.3 ± 0.9	1.09 ± 0.02
313.15 K, x1 = 0.3003	748.88 ± 0.72	1233.4 ± 0.9	1.1 ± 0.02
313.15 K, x1 = 0.4009	754.1 ± 0.72	1237.6 ± 0.9	1.11 ± 0.02
313.15 K, x1 = 0.5001	759.47 ± 0.72	1242.1 ± 0.9	1.12 ± 0.02
313.15 K, x1 = 0.6	764.99 ± 0.72	1246.8 ± 1	1.14 ± 0.02
313.15 K, x1 = 0.7003	770.8 ± 0.72	1251.7 ± 1	1.15 ± 0.02
313.15 K, x1 = 0.8136	777.66 ± 0.72	1257.6 ± 1	1.17 ± 0.02
313.15 K, x1 = 0.9082	783.52 ± 0.72	1262.8 ± 1	1.19 ± 0.02
313.15 K, x1 = 1	789.49 ± 0.72	1268.2 ± 1.1	1.21 ± 0.03
323.15 K, x1 = 0.1009	731.68 ± 0.71	1188.3 ± 0.8	0.941 ± 0.021
323.15 K, x1 = 0.2001	736.51 ± 0.71	1192.1 ± 0.9	0.949 ± 0.021
323.15 K, x1 = 0.3003	741.57 ± 0.72	1196.2 ± 0.9	0.957 ± 0.021
323.15 K, x1 = 0.4009	746.79 ± 0.72	1200.3 ± 0.9	0.967 ± 0.021
323.15 K, x1 = 0.5001	752.16 ± 0.72	1204.8 ± 0.9	0.976 ± 0.021
323.15 K, x1 = 0.6	757.67 ± 0.72	1209.6 ± 1	0.988 ± 0.021
323.15 K, x1 = 0.7003	763.48 ± 0.72	1214.3 ± 1	1 ± 0.02
323.15 K, x1 = 0.8136	770.33 ± 0.72	1220.1 ± 1	1.02 ± 0.02
323.15 K, x1 = 0.9082	776.17 ± 0.72	1225.1 ± 1	1.03 ± 0.02
323.15 K, x1 = 1	782.14 ± 0.72	1230.5 ± 1.1	1.05 ± 0.03
333.15 K, x1 = 0.1009	724.33 ± 0.72	1151.9 ± 0.8	0.819 ± 0.021
333.15 K, x1 = 0.2001	729.17 ± 0.72	1155.8 ± 0.9	0.825 ± 0.021
333.15 K, x1 = 0.3003	734.22 ± 0.72	1159.8 ± 0.9	0.833 ± 0.021
333.15 K, x1 = 0.4009	739.44 ± 0.72	1163.9 ± 0.9	0.841 ± 0.021
333.15 K, x1 = 0.5001	744.8 ± 0.72	1168.3 ± 0.9	0.851 ± 0.021
333.15 K, x1 = 0.6	750.31 ± 0.72	1172.9 ± 1	0.861 ± 0.021
333.15 K, x1 = 0.7003	756.11 ± 0.72	1177.6 ± 1	0.871 ± 0.021
333.15 K, x1 = 0.8136	762.96 ± 0.72	1183.4 ± 1	0.887 ± 0.021
333.15 K, x1 = 0.9082	768.8 ± 0.72	1188.4 ± 1	0.897 ± 0.021
333.15 K, x1 = 1	774.75 ± 0.72	1193.5 ± 1.1	0.914 ± 0.031
